Measurements taken from ChEMBL document CHEMBL1201862, “PubChem BioAssay data set” (2004).
The source made the active and inactive calls.

Legend:
Exodeoxyribonuclease V = target: T1, Exodeoxyribonuclease V (Escherichia coli (strain K12), UniProt P04993+P07648+P08394); experiment: RecBCD inhibition via phage-restricted bacterial growth – absorbance, V66 E. coli, mutant T4 phage, counter-screen for AddAB inhibitor project, dose response (AID 492957); assay type: functional, cell-based, Escherichia coli str. K-12 substr. MG1655
T1 sequence (P04993 whole entry): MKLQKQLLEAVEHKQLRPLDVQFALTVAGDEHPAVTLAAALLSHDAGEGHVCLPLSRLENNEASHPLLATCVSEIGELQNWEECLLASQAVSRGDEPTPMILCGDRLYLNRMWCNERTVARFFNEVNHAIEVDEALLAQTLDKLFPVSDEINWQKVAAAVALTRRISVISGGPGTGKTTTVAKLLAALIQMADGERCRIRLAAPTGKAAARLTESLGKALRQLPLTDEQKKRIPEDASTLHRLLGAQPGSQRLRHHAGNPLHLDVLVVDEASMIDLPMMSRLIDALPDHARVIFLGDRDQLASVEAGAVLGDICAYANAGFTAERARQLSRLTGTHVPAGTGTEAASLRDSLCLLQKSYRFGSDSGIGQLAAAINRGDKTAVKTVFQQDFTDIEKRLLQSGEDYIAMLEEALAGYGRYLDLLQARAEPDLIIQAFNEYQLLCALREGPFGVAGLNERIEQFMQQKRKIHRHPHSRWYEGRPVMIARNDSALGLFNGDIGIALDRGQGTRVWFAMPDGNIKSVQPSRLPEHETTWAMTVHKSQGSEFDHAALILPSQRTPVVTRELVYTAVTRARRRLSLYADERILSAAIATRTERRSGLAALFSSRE
T1 sequence (P07648 whole entry): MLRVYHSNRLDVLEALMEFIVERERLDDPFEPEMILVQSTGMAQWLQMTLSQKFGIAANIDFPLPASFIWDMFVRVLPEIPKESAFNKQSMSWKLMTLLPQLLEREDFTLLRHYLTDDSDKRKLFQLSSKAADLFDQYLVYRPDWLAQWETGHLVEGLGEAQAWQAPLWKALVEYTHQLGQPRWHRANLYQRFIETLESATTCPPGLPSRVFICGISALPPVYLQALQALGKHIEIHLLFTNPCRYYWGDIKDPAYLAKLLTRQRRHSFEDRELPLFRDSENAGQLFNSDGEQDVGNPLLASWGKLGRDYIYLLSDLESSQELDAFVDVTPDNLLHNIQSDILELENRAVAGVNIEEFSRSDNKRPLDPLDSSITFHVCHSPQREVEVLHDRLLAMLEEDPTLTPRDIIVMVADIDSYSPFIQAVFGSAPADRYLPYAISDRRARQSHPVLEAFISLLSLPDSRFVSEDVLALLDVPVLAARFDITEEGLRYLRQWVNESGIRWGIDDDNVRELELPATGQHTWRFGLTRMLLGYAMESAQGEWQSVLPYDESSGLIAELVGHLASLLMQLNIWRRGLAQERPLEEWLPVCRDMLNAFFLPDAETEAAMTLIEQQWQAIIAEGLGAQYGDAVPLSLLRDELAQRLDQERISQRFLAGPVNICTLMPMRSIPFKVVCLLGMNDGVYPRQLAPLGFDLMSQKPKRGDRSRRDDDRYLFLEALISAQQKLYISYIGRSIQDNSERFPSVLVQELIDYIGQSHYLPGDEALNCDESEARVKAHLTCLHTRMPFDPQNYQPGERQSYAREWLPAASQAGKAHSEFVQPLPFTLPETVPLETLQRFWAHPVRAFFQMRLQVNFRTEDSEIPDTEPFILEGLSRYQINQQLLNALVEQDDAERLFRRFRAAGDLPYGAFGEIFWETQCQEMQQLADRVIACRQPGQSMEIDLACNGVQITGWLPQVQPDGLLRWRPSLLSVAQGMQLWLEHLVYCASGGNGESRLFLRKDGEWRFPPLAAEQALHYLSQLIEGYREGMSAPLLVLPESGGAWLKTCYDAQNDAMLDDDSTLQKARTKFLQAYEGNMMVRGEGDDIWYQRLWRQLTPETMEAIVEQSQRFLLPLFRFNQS
T1 sequence (P08394 whole entry): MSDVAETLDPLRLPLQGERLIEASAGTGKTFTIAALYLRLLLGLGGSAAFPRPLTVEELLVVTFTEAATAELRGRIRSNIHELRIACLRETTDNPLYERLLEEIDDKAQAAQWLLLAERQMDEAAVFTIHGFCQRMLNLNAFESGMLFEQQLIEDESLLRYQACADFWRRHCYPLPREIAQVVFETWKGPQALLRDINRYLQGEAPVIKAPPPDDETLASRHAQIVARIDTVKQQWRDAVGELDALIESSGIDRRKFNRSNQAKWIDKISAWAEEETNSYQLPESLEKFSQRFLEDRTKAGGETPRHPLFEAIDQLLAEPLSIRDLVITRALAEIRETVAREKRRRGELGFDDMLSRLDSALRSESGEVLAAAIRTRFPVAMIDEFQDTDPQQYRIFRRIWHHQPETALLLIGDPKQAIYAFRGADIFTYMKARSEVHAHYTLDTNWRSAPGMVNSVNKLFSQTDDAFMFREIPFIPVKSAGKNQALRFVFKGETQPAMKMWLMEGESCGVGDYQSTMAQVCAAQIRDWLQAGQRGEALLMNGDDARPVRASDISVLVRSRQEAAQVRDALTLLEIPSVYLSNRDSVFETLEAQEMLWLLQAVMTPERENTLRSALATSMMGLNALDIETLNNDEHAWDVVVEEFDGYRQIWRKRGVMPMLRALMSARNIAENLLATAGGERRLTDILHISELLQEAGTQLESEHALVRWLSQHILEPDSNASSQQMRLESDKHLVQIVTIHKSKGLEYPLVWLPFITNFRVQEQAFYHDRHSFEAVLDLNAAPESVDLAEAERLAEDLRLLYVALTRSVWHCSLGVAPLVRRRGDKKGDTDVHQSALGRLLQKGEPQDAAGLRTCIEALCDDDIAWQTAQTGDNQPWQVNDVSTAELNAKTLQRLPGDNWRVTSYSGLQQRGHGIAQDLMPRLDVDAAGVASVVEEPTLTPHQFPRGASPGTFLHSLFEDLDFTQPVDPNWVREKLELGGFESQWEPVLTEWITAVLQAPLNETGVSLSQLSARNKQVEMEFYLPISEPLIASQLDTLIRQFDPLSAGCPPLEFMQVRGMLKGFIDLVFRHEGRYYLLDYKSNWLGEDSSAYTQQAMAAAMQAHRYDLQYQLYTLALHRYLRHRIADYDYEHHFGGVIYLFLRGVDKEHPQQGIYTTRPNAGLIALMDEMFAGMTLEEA

[1] = target: T2, Sentrin-specific protease 8 (Homo sapiens, UniProt Q96LD8); assay type: functional;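 also: luminescence read-out of SENP8 inhibition, dose-response confirmation following an ultra-high-throughput screen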
T2 sequence (Q96LD8 whole entry): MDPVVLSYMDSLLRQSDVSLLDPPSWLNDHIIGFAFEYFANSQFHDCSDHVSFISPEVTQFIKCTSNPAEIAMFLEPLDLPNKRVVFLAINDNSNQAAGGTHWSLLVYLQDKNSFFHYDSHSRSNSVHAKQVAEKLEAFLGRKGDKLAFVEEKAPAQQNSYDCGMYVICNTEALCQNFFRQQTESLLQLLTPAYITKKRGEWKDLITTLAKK

Row | SMILES | IC50 (Exodeoxyribonuclease V) | IC50 [1]
1 | CC(C)CC(=O)NC(c1cccs1)c1ccc2cccnc2c1O (configuration not stated) | > 119 µM (inactive) | –
2 | COc1ccc(C(=O)c2nccc3cc(OC)c(OC)cc23)cc1OC | – | 2.47 µM (active)
